PubChem BioAssay AID330 (DTP/NCI, 2004)
Several values for one entry are separate records, joined by “and”; a condition that tells them apart may be missing. Equal entries are not always repeated. Inconclusive results and toxic doses are left out.

System: P388 leukemia ip, CD2F1 mice, survival T/C
Experiment: NCI In Vivo Anticancer Drug Screen. Data for tumor model P388 Leukemia (intraperitoneal) in CD2F1 (CDF1) mice
Conditions: endpoint: median survival time, higher = longer survival
Outline: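 Mice carrying the transplanted tumor received test compound or vehicle. Survival was recorded in each group, and the value is the treated-group measurement divided by that of the vehicle-treated control group.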

[1] = dose: 50.0 mg/kg/injection, schedule: Q01DX005 (ip), vehicle: Klucel (hydroxypropylcellulose) (HPC)
[2] = dose: 100.0 mg/kg/injection, schedule: Q01DX005 (ip), vehicle: Klucel (hydroxypropylcellulose) (HPC)
[3] = dose: 200.0 mg/kg/injection, schedule: Q01DX005 (ip), vehicle: Klucel (hydroxypropylcellulose) (HPC)
[4] = dose: 100.0 mg/kg/injection, schedule: Q04DX002 (ip), vehicle: saline with Tween-80
[5] = dose: 200.0 mg/kg/injection, schedule: Q04DX002 (ip), vehicle: saline with Tween-80
[6] = dose: 400.0 mg/kg/injection, schedule: Q04DX002 (ip), vehicle: saline with Tween-80
[7] = dose: 25.0 mg/kg/injection, schedule: Q04DX002 (ip), vehicle: saline with Tween-80
[8] = dose: 50.0 mg/kg/injection, schedule: Q04DX002 (ip), vehicle: saline with Tween-80
[9] = dose: 12.5 mg/kg/injection, schedule: Q01DX009 (ip), vehicle: saline
[10] = dose: 25.0 mg/kg/injection, schedule: Q01DX009 (ip), vehicle: saline
[11] = dose: 50.0 mg/kg/injection, schedule: Q01DX009 (ip), vehicle: saline with Tween-80
[12] = dose: 100.0 mg/kg/injection, schedule: Q01DX009 (ip), vehicle: saline with Tween-80
[13] = dose: 200.0 mg/kg/injection, schedule: Q01DX009 (ip), vehicle: saline with Tween-80
[14] = dose: 100.0 mg/kg/injection, schedule: Q01DX009 (ip), vehicle: Klucel (hydroxypropylcellulose) (HPC)
[15] = dose: 50.0 mg/kg/injection, schedule: Q01DX009 (ip), vehicle: saline
[16] = dose: 100.0 mg/kg/injection, schedule: Q01DX009 (ip), vehicle: saline
[17] = dose: 200.0 mg/kg/injection, schedule: Q01DX009 (ip), vehicle: saline

Compound: COc1cc(OC)cc(C2(C(=O)[C@@H]3OC(C)(C)OC3C)SCCCS2)c1 (stereo partly drawn)
- T/C (dose: 100.0 mg/kg/injection, schedule: Q01DX001 (ip), vehicle: Klucel (hydroxypropylcellulose) (HPC)): 98 % of control
- T/C (dose: 200.0 mg/kg/injection, schedule: Q01DX001 (ip), vehicle: Klucel (hydroxypropylcellulose) (HPC)): 94 % of control
- T/C (dose: 400.0 mg/kg/injection, schedule: Q01DX001 (ip), vehicle: Klucel (hydroxypropylcellulose) (HPC)): 90 % of control

Compound: O=S(=O)(O)c1ccc(Cl)c(N=N/C=N/Nc2cc(S(=O)(=O)O)ccc2Cl)c1
- T/C [1]: 100 % of control
- T/C [2]: 98 % of control
- T/C [3]: 100 % of control

Compound: COc1c(-c2ccccc2)cc(-c2ccccc2)c(-c2ccccc2)c1-c1ccccc1
- T/C [4]: 93 % of control
- T/C [5]: 86 % of control
- T/C [6]: 89 % of control

Compound: OC1CC2CC1CC2c1cnc[nH]1 (stereo not drawn)
- T/C (dose: 12.5 mg/kg/injection, schedule: Q04DX002 (ip), vehicle: saline with Tween-80): 100 % of control
- T/C [7]: 100 % of control
- T/C [8]: 100 % of control
- T/C [4]: 100 % of control

Compound: C=CCOc1ccccc1/C=N/[N+](C)(C)C
- T/C [9]: 100 % of control
- T/C [10]: 110 % of control

Compound: CCC1(CCC(C)C)C(=O)N(CCCl)C(=O)N(CCCl)C1=O
- T/C [11]: 100 % of control
- T/C [12]: 105 % of control
- T/C [13]: 96 % of control

Compound: COc1cc(CC2C(CO)OC(=O)C2C(O)c2ccc3c(c2)OCO3)cc(OC)c1OC (stereo not drawn)
- T/C (dose: 5.0 mg/kg/injection, schedule: Q04DX002 (ip), vehicle: saline with Tween-80): 104 % of control
- T/C (dose: 10.0 mg/kg/injection, schedule: Q04DX002 (ip), vehicle: saline with Tween-80): 104 % of control
- T/C (dose: 20.0 mg/kg/injection, schedule: Q04DX002 (ip), vehicle: saline with Tween-80): 102 % of control

Compound: NC(=S)N/N=C/c1nc2ccccn2c1[N+](=O)[O-]
- T/C [14]: 86 % of control

Compound: CC1([CH2][Hg][Cl])Cc2ccccc2O1 (stereo not drawn)
- T/C (dose: 0.78 mg/kg/injection, schedule: Q01DX009 (ip), vehicle: saline with Tween-80): 91 % of control
- T/C (dose: 1.56 mg/kg/injection, schedule: Q01DX009 (ip), vehicle: saline with Tween-80): 95 % of control
- T/C (dose: 3.13 mg/kg/injection, schedule: Q01DX009 (ip), vehicle: saline with Tween-80): 86 % of control

Compound: CCCn1c2nc(=O)[nH]c(=O)c-2cc2ccccc21
- T/C (dose: 10.0 mg/kg/injection, schedule: Q01DX009 (ip), vehicle: saline with Tween-80): 105 % of control
- T/C (dose: 20.0 mg/kg/injection, schedule: Q01DX009 (ip), vehicle: saline with Tween-80): 103 % of control
- T/C (dose: 40.0 mg/kg/injection, schedule: Q01DX009 (ip), vehicle: saline with Tween-80): 113 % of control

Compound: Cc1ccc(S(=O)(=O)OC2CCCCC2c2ccccc2)cc1 (stereo not drawn)
- T/C (dose: 6.25 mg/kg/injection, schedule: Q01DX001 (ip), vehicle: Klucel (hydroxypropylcellulose) (HPC)): 102 % of control
- T/C (dose: 12.5 mg/kg/injection, schedule: Q01DX001 (ip), vehicle: Klucel (hydroxypropylcellulose) (HPC)): 116 % of control and 98 % of control
- T/C (dose: 25.0 mg/kg/injection, schedule: Q01DX001 (ip), vehicle: Klucel (hydroxypropylcellulose) (HPC)): 102 % of control and 90 % of control

Compound: Nc1ccn([C@@H](C=O)C[C@@H](C=O)CO)c(=O)n1
- T/C (dose: 25.0 mg/kg/injection, schedule: Q01DX005 (ip), vehicle: saline): 112 % of control
- T/C (dose: 200.0 mg/kg/injection, schedule: Q01DX005 (ip), vehicle: saline): 150 % of control
- T/C (dose: 400.0 mg/kg/injection, schedule: Q01DX005 (ip), vehicle: saline): 166 % of control

Compound: N=C(N)Sc1cc(O)ccc1O
- T/C (dose: 75.0 mg/kg/injection, schedule: Q01DX009 (ip), vehicle: saline with Tween-80): 118 % of control
- T/C (dose: 150.0 mg/kg/injection, schedule: Q01DX009 (ip), vehicle: saline with Tween-80): 113 % of control

Compound: C/C(=N/NC(N)=O)c1ccc2c3c(cc(Br)c2c1)CCCC3
- T/C (dose: 6.25 mg/kg/injection, schedule: Q01DX005 (ip), vehicle: saline with Tween-80): 99 % of control
- T/C (dose: 12.5 mg/kg/injection, schedule: Q01DX005 (ip), vehicle: saline with Tween-80): 99 % of control
- T/C (dose: 25.0 mg/kg/injection, schedule: Q01DX005 (ip), vehicle: saline with Tween-80): 95 % of control
- T/C (dose: 50.0 mg/kg/injection, schedule: Q01DX005 (ip), vehicle: saline with Tween-80): 91 % of control

Compound: O=C(CCCCl)CC(O)(C(F)(F)Cl)C(F)(F)Cl
- T/C (dose: 25.0 mg/kg/injection, schedule: Q04DX003 (ip), vehicle: saline): 100 % of control
- T/C (dose: 50.0 mg/kg/injection, schedule: Q04DX003 (ip), vehicle: saline): 100 % of control
- T/C (dose: 100.0 mg/kg/injection, schedule: Q04DX003 (ip), vehicle: saline): 95 % of control

Compound: NC(=S)NC12CC3CC(CC(C3)C1)C2
- T/C [8]: 99 % of control
- T/C [4]: 98 % of control
- T/C [5]: 98 % of control

Compound: CC12CC3CC(O)(C1)CC(O)(C3)C2
- T/C [15]: 100 % of control
- T/C [16]: 100 % of control
- T/C [17]: 102 % of control

Compound: O=C(NC[N+]12CCO[B-]1(c1ccccc1)OCC2)c1ccccc1O (stereo not drawn)
- T/C [1]: 106 % of control
- T/C [2]: 98 % of control
- T/C [3]: 103 % of control

Compound: Cc1cccc(Cl)c1NC(=O)C(C)C
- T/C (dose: 100.0 mg/kg/injection, schedule: Q04DX003 (ip), vehicle: other): 104 % of control
- T/C (dose: 200.0 mg/kg/injection, schedule: Q04DX003 (ip), vehicle: other): 109 % of control
- T/C (dose: 400.0 mg/kg/injection, schedule: Q04DX003 (ip), vehicle: other): 90 % of control

Compound: Cc1ccc(S(=O)(=O)Sc2nnnn2-c2ccccc2)cc1
- T/C (dose: 50.0 mg/kg/injection, schedule: Q01DX009 (ip), vehicle: Klucel (hydroxypropylcellulose) (HPC)): 97 % of control
- T/C [14]: 103 % of control
- T/C (dose: 200.0 mg/kg/injection, schedule: Q01DX009 (ip), vehicle: Klucel (hydroxypropylcellulose) (HPC)): 97 % of control

Compound: Cc1cc(=O)[nH]c(N/N=C/c2c(O)ccc3ccccc23)n1
- T/C (dose: 12.5 mg/kg/injection, schedule: Q01DX009 (ip), vehicle: saline with Tween-80): 93 % of control
- T/C (dose: 25.0 mg/kg/injection, schedule: Q01DX009 (ip), vehicle: saline with Tween-80): 88 % of control
- T/C [11]: 87 % of control
- T/C [12]: 102 % of control

Compound: Cc1ccc(C(C(C)[N+](=O)[O-])C(C(=O)c2ccccc2)S(=O)(=O)c2ccccc2)cc1 (stereo not drawn)
- T/C [1]: 93 % of control
- T/C [2]: 106 % of control and 91 % of control
- T/C [3]: 106 % of control and 89 % of control

Compound: CC(=S)NC(O)C(=O)c1ccccc1 (stereo not drawn)
- T/C [11]: 121 % of control

Compound: CC(=O)N(C)N
- T/C (dose: 60.0 mg/kg/injection, schedule: Q01DX005 (ip), vehicle: saline): 107 % of control
- T/C (dose: 120.0 mg/kg/injection, schedule: Q01DX005 (ip), vehicle: saline): 102 % of control
- T/C (dose: 240.0 mg/kg/injection, schedule: Q01DX005 (ip), vehicle: saline): 93 % of control

Compound: CC(C)C1=CC2=CCC3C(C)(C(=O)O)CCCC3(C)C2CC1.[Ni] (stereo not drawn)
- T/C [9]: 95 % of control
- T/C [10]: 88 % of control
- T/C [15]: 88 % of control

Compound: CN(C)c1nc(O)cc(=O)[nH]1
- T/C [11]: 106 % of control
- T/C [12]: 100 % of control
- T/C [13]: 89 % of control

Compound: O=C1c2ccccc2C(=O)c2c(Nc3cccc(S(=O)(=O)N(CCO)CCO)c3)ccc(O)c21
- T/C [7]: 99 % of control
- T/C [8]: 93 % of control
- T/C [4]: 92 % of control
- T/C [5]: 93 % of control

Compound: N#CC1=C(C#N)CC2C(C1)OC1CC(C#N)=C(C#N)CC12 (stereo not drawn)
- T/C [15]: 100 % of control
- T/C [16]: 101 % of control
- T/C [17]: 100 % of control

Compound: NC(C(=O)O)C(CC(=O)O)c1ccncc1 (stereo not drawn)
- T/C (dose: 100.0 mg/kg/injection, schedule: Q04DX003 (ip), vehicle: saline with Tween-80): 96 % of control
- T/C (dose: 200.0 mg/kg/injection, schedule: Q04DX003 (ip), vehicle: saline with Tween-80): 89 % of control
- T/C (dose: 400.0 mg/kg/injection, schedule: Q04DX003 (ip), vehicle: saline with Tween-80): 98 % of control

Compound: CC(=O)Nn1c(N)nc2cc(C)ccc21
- T/C (dose: 200.0 mg/kg/injection, schedule: Q01DX001 (ip), vehicle: saline): 98 % of control
- T/C (dose: 400.0 mg/kg/injection, schedule: Q01DX001 (ip), vehicle: saline): 93 % of control

Compound: O=C(OC1CC2CCC1C2)c1cc([N+](=O)[O-])cc([N+](=O)[O-])c1 (stereo not drawn)
- T/C [11]: 107 % of control
- T/C [12]: 100 % of control
- T/C [4]: 108 % of control
- T/C [13]: 90 % of control
- T/C [5]: 105 % of control
- T/C [6]: 100 % of control
